Data taken from patent US11026875B2, “Skin restoration product” (Givaudan SA, priority 2016, dated 2021).

Test system: normal human dermal fibroblasts (NHFs)
Assay: N-sulfated GAG (heparan sulfate) synthesis (production + liberation) by normal human dermal fibroblasts
Format: cell-based
Conditions: 72 h, cells pellets + supernatants, reported to total proteins, composition at 1 mM
Protocol: The composition was applied at 0.5 and 1 mM to normal human dermal fibroblasts (NHFs) over a period of 72 hours. Normal human fibroblasts (NHFs), were isolated from the skin dermis of Caucasian women donors (plastic surgery). Cells were seeded at 80 000 fibroblasts/well in 24-wells plates and were left to adhere for 24 hours at 37° C./5% CO2 in complete DMEM (Dulbecco's Modified Eagle Medium) (with antibiotics and FBS, fetal bovine serum).
The cells were then treated with the composition in non-supplemented medium (without FBS) for 72 hours and incubated at 37° C./5% CO2, and then total sGAG (sulfated Glycosaminoglycans) and HS (Heparan sulfate, or N-sulfated GAG) were dosed in culture supernatants and cells pellets (total proteins were dosed in cells pellets). Each product concentration was tested in duplicate. Furthermore, dosages were reported as a proportion of total amount of proteins. At the end of treatment, supernatants were collected. Cells were lysed in a papain containing buffer (Papaya latex Sigma P3125). Cells extracts were collected and centrifuged. Supernatants and cells pellets were dosed for sGAG, HS, or total proteins.
sGAG and HS dosage principles: Total sulfated GAG (sGAG), were dosed using the Blyscan™ sGAG Assay kit (Biocolor B1000 or B3000). The Blyscan™ assay is a quantitative dye-binding method for the analysis of sulfated proteoglycans and glycosaminoglycans (sGAG). The dye label used in the assay is 1,9-dimethylmethylene blue and the dye is employed under conditions that provide a specific label for the sulfated polysaccharide component of proteoglycans or the protein free sulfated glycosaminoglycan chains. The method consists of adding a specific blue dye reagent to an aliquot of supernatants or cells pellets which makes sGAG precipitate (a complex dye-sGAG is formed and precipitates out from the soluble unbound dye).
Centrifugation permitted the collection of a pellet of precipitate at the tube bottom. After having carefully drained the dye, the pellet was solubilized in a dissociation reagent (5-10% Sodium dodecyl sulphate). Absorbance was read at 656 nm in duplicate, in a 96-wells microplate. […] After this reaction, O-sGAG level can be measured using the protocol as normal, and N-sulfated content was subsequently calculated from the difference between the total sGAG value (determined earlier) and the O-sGAG content.
Total proteins dosage principle: Total proteins dosage in cells pellets was performed in parallel by colorimetric method based on bicinchoninic acid (BCA). […] The amount of reduction and of BCA-Cu^+ complex is proportional to the protein concentration present and is quantified by spectrophotometric lecture at 570 nm. […]

Substance: TGF beta: transforming growth factor beta, used as positive control
- N-sulfated GAG synthesis improvement (donor one fibroblasts): +43%
- N-sulfated GAG synthesis improvement (donor one fibroblasts, listed as TGFβ): +43%
- N-sulfated GAG synthesis improvement (donor two fibroblasts): +24%
- N-sulfated GAG synthesis improvement (donor two fibroblasts, listed as TGFβ): +24%
